{
  "source": "patent US10865191B2",
  "about": "“Heterocyclic compounds useful as modulators of TNF alpha” (BRISTOL-MYERS SQUIBB COMPANY, priority 2015, dated 2020)",
  "biological_target": "TNFα (Homo sapiens, UniProt P01375)",
  "sequence (P01375 77-233 limits assumed)": "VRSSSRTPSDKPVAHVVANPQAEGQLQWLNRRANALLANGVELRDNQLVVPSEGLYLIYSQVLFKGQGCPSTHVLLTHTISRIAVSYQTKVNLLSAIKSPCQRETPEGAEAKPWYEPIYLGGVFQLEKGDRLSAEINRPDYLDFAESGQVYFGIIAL",
  "test": "TNF induced HEK-Blue assay (NF-kB-driven secreted alkaline phosphatase reporter)",
  "assay_type": "cell-based",
  "conditions": "TNFα 0.5 ng/mL, HEK-Blue-CD40L cells, 18 h; read-out: TNF induced HEK-Blue assay IC50 value",
  "method_in_brief": "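HEK-Blue-CD40L cells (NF-kB-driven SEAP reporter), 20,000/well, added after 30 min pre-incubation of compound (0.004–25 μM final) with TNFα 0.5 ng/mL final at 37 °C; 18 h incubation. SEAP read with QUANTI-Blue at 620 nm; IC50 from 4-parameter logistic fit, normalized to unstimulated and stimulated DMSO controls.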",
  "data": [
    {"smiles": "Cc1nc2ccc(-c3cnc(C(C)(C)O)nc3)cc2c(N[C@H](C)c2cc(C(N)=O)ccc2F)c1C", "note": "[Example 315, (R)-4-fluoro-3-(1-((6-(2-(2-hydroxypropan-2-yl)pyrimidin-5-yl)-2,3-dimethylquinolin-4-yl)amino)ethyl)benzamide]", "values": [
      {"measurement": "IC50", "value": "10000 to 25000", "unit": "nM"}
    ]},
    {"smiles": "Cc1nc2ccc(-c3cnc(C(C)(C)O)nc3)cc2c(N[C@H](C)c2cc(Br)ccc2F)c1Cl", "note": "[Example 316, (R)-2-(5-(4-((1-(5-bromo-2-fluorophenyl)ethyl)amino)-3-chloro-2-methylquinolin-6-yl)pyrimidin-2-yl)propan-2-ol]", "values": [
      {"measurement": "IC50", "value": "< 1000", "unit": "nM"}
    ]},
    {"smiles": "C[C@@H](Nc1c(Cl)cnc2ccc(-c3cnc(C(C)(C)O)nc3)cc12)c1cc(Br)ccc1F", "note": "[Example 318, (R)-2-(5-(4-((1-(5-bromo-2-fluorophenyl)ethyl)amino)-3-chloroquinolin-6-yl)pyrimidin-2-yl)propan-2-ol]", "values": [
      {"measurement": "IC50", "value": "< 1000", "unit": "nM"}
    ]},
    {"smiles": "C[C@@H](Nc1c(Cl)cnc2ccc(-c3cnc(C(C)(C)O)nc3)cc12)c1cccc(Br)c1", "note": "[Example 319, (R)-2-(5-(4-((1-(3-bromophenyl)ethyl)amino)-3-chloroquinolin-6-yl)pyrimidin-2-yl)propan-2-ol]", "values": [
      {"measurement": "IC50", "value": "< 1000", "unit": "nM"}
    ]},
    {"smiles": "Cc1nc2ccc(-c3cnc(C(C)(C)O)nc3)cc2c(N[C@@H](c2cc(Br)ccc2F)C(F)F)c1Cl", "note": "[Example 320, (S)-2-(5-(4-((1-(5-bromo-2-fluorophenyl)-2,2-difluoroethyl)amino)-3-chloro-2-methylquinolin-6-yl)pyrimidin-2-yl)propan-2-ol]", "values": [
      {"measurement": "IC50", "value": "< 1000", "unit": "nM"}
    ]},
    {"smiles": "Cc1nc2ccc(-c3cnc(C(C)(C)O)nc3)cc2c(N[C@H](c2cc(Br)ccc2F)C(F)F)c1Cl", "note": "[Example 321, (R)-2-(5-(4-((1-(5-bromo-2-fluorophenyl)-2,2-difluoroethyl)amino)-3-chloro-2-methylquinolin-6-yl)pyrimidin-2-yl) propan-2-ol]", "values": [
      {"measurement": "IC50", "value": "10000 to 25000", "unit": "nM"}
    ]},
    {"smiles": "Cc1nc2ccc(-c3cnc(C(C)(C)O)nc3)cc2c(N[C@H](C)c2ccccc2)c1Cl", "note": "[Example 322, (R)-2-(5-(3-chloro-2-methyl-4-((1-phenylethyl)amino)quinolin-6-yl)pyrimidin-2-yl)propan-2-ol]", "values": [
      {"measurement": "IC50", "value": "10000 to 25000", "unit": "nM"}
    ]},
    {"smiles": "Cc1nc2ccc(-c3cnc(C(C)(C)O)nc3)cc2c(N[C@H](C)c2cc(CCO)ccc2F)c1Cl", "note": "[Example 323, (R)-2-(5-(3-chloro-4-((1-(2-fluoro-5-(2-hydroxyethyl)phenyl)ethyl)amino)-2-methylquinolin-6-yl)pyrimidin-2-yl)propan-2-ol]", "values": [
      {"measurement": "IC50", "value": "< 1000", "unit": "nM"}
    ]},
    {"smiles": "Cc1nc2cc(F)c(-c3cnc(C(C)(C)O)nc3)cc2c(N[C@H](C)c2cc(OCCO)ccc2F)c1Cl", "note": "[Example 324, (R)-2-(5-(3-chloro-7-fluoro-4-((1-(2-fluoro-5-(2-hydroxyethoxy)phenyl)ethyl)amino)-2-methylquinolin-6-yl)pyrimidin-2-yl)propan-2-ol]", "values": [
      {"measurement": "IC50", "value": "< 1000", "unit": "nM"}
    ]},
    {"smiles": "Cc1nc2cc(F)c(-c3cnc(C(C)(C)O)nc3)cc2c(N[C@H](C)c2cc(CCO)ccc2F)c1Cl", "note": "[Example 325, (R)-2-(5-(3-chloro-7-fluoro-4-((1-(2-fluoro-5-(2-hydroxyethyl)phenyl)ethyl)amino)-2-methylquinolin-6-yl)pyrimidin-2-yl) propan-2-ol]", "values": [
      {"measurement": "IC50", "value": "< 1000", "unit": "nM"}
    ]},
    {"smiles": "COc1ccc(F)c([C@@H](C)Nc2c(Cl)c(C)nc3ccc(-c4cnc(C(C)(C)O)nc4)cc23)c1", "note": "[Example 326, (R)-2-(5-(3-chloro-4-((1-(2-fluoro-5-methoxyphenyl)ethyl)amino)-2-methylquinolin-6-yl)pyrimidin-2-yl)propan-2-ol]", "values": [
      {"measurement": "IC50", "value": "< 1000", "unit": "nM"}
    ]},
    {"smiles": "COc1ccc(F)c([C@@H](C)Nc2c(Cl)cnc3ccc(-c4cnc(C(C)(C)O)nc4)cc23)c1", "note": "[Example 327, (R)-2-(5-(3-chloro-4-((1-(2-fluoro-5-methoxyphenyl)ethyl)amino)quinolin-6-yl)pyrimidin-2-yl)propan-2-ol]", "values": [
      {"measurement": "IC50", "value": "< 1000", "unit": "nM"}
    ]},
    {"smiles": "COc1ccc(F)c([C@@H](C)Nc2c(Cl)c(C)nc3ccc(Br)cc23)c1", "note": "[Example 328, (R)-6-bromo-3-chloro-N-(1-(2-fluoro-5-methoxyphenyl)ethyl)-2-methylquinolin-4-amine]", "values": [
      {"measurement": "IC50", "value": "1000 to 10000", "unit": "nM"}
    ]},
    {"smiles": "COc1ccc(F)c([C@@H](C)Nc2c(Cl)c(C)nc3ccccc23)c1", "note": "[Example 329, (R)-3-chloro-N-(1-(2-fluoro-5-methoxyphenyl)ethyl)-2-methylquinolin-4-amine]", "values": [
      {"measurement": "IC50", "value": "1000 to 10000", "unit": "nM"}
    ]},
    {"smiles": "C=Cc1ccc(F)c([C@@H](C)Nc2c(Cl)c(C)nc3ccc(-c4cnc(C(C)(C)O)nc4)cc23)c1", "note": "[Example 330, (R)-2-(5-(3-chloro-4-((1-(2-fluoro-5-vinylphenyl)ethyl)amino)-2-methylquinolin-6-yl)pyrimidin-2-yl)propan-2-ol]", "values": [
      {"measurement": "IC50", "value": "< 1000", "unit": "nM"}
    ]},
    {"smiles": "Cc1nc2ccc(-c3cnc(C(C)(C)O)nc3)cc2c(N[C@H](C)c2cc(-c3ccccc3)ccc2F)c1Cl", "note": "[Example 331, (R)-2-(5-(3-chloro-4-((1-(4-fluoro-[1,1′-biphenyl]—3-yl)ethyl)amino)-2-methylquinolin-6-yl)pyrimidin-2-yl)propan-2-ol]", "values": [
      {"measurement": "IC50", "value": "< 1000", "unit": "nM"}
    ]},
    {"smiles": "Cc1ccccc1-c1ccc(F)c([C@@H](C)Nc2c(Cl)c(C)nc3ccc(-c4cnc(C(C)(C)O)nc4)cc23)c1", "note": "[Example 332, (R)-2-(5-(3-chloro-4-((1-(4-fluoro-2′-methyl-[1,1′-biphenyl]-3-yl)ethyl)amino)-2-methylquinolin-6-yl)pyrimidin-2-yl)propan-2-ol]", "values": [
      {"measurement": "IC50", "value": "< 1000", "unit": "nM"}
    ]},
    {"smiles": "Cc1nc2ccc(-c3cnc(C(C)(C)O)nc3)cc2c(N[C@H](C)c2cc(C3=CCCC3)ccc2F)c1Cl", "note": "[Example 333, (R)-2-(5-(3-chloro-4-((1-(5-(cyclopent-1-en-1-yl)-2-fluorophenyl)ethyl)amino)-2-methylquinolin-6-yl)pyrimidin-2-yl)propan-2-ol]", "values": [
      {"measurement": "IC50", "value": "< 1000", "unit": "nM"}
    ]},
    {"smiles": "Cc1ccc(F)c([C@@H](C)Nc2c(Cl)c(C)nc3ccc(-c4cnc(C(C)(C)O)nc4)cc23)c1", "note": "[Example 334, (R)-2-(5-(3-chloro-4-((1-(2-fluoro-5-methylphenyl)ethyl)amino)-2-methylquinolin-6-yl)pyrimidin-2-yl)propan-2-ol]", "values": [
      {"measurement": "IC50", "value": "< 1000", "unit": "nM"}
    ]},
    {"smiles": "Cc1nc2ccc(-c3cnc(C(C)(C)O)nc3)cc2c(N[C@H](C)c2cc(-c3cn[nH]c3)ccc2F)c1Cl", "note": "[Example 335, (R)-2-(5-(3-chloro-4-((1-(2-fluoro-5-(1H-pyrazol-4-yl)phenyl)ethyl)amino)-2-methylquinolin-6-yl)pyrimidin-2-yl) propan-2-ol]", "values": [
      {"measurement": "IC50", "value": "< 1000", "unit": "nM"}
    ]},
    {"smiles": "Cc1nc2ccc(-c3cnc(C(C)(C)O)nc3)cc2c(N[C@H](C)c2cc(-c3cc[nH]n3)ccc2F)c1Cl", "note": "[Example 336, (R)-2-(5-(3-chloro-4-((1-(2-fluoro-5-(1H-pyrazol-3-yl)phenyl)ethyl)amino)-2-methylquinolin-6-yl)pyrimidin-2-yl)propan-2-ol]", "values": [
      {"measurement": "IC50", "value": "< 1000", "unit": "nM"}
    ]},
    {"smiles": "C[C@@H](Nc1c(Cl)cnc2ccc(-c3cnc(C(C)(C)O)nc3)cc12)c1cc(C2=CCN(C(=O)OC(C)(C)C)CC2)ccc1F", "note": "[Example 337, tert-butyl (R)-4-(3-(1-((3-chloro-6-(2-(2-hydroxypropan-2-yl)pyrimidin-5-yl)quinolin-4-yl)amino)ethyl)-4-fluorophenyl)-3,6-dihydropyridine-1(2H)-carboxylate]", "values": [
      {"measurement": "IC50", "value": "1000 to 10000", "unit": "nM"}
    ]},
    {"smiles": "C[C@@H](Nc1c(Cl)cnc2ccc(-c3cnc(C(C)(C)O)nc3)cc12)c1cc(C2=CCNCC2)ccc1F", "note": "[Example 338, (R)-2-(5-(3-chloro-4-((1-(2-fluoro-5-(1,2,3,6-tetrahydropyridin-4-yl)phenyl)ethyl)amino)quinolin-6-yl)pyrimidin-2-yl)propan-2-ol]", "values": [
      {"measurement": "IC50", "value": "< 1000", "unit": "nM"}
    ]},
    {"smiles": "C[C@@H](Nc1c(Cl)cnc2ccc(-c3cnc(C(C)(C)O)nc3)cc12)c1cc(-c2cnn(C)c2)ccc1F", "note": "[Example 339, (R)-2-(5-(3-chloro-4-((1-(2-fluoro-5-(1-methyl-1H-pyrazol-4-yl)phenyl)ethyl)amino)quinolin-6-yl)pyrimidin-2-yl)propan-2-ol]", "values": [
      {"measurement": "IC50", "value": "< 1000", "unit": "nM"}
    ]},
    {"smiles": "C[C@@H](Nc1c(Cl)cnc2ccc(-c3cnc(C(C)(C)O)nc3)cc12)c1cc(-c2cncnc2)ccc1F", "note": "[Example 340, (R)-2-(5-(3-chloro-4-((1-(2-fluoro-5-(pyrimidin-5-yl)phenyl)ethyl)amino)quinolin-6-yl)pyrimidin-2-yl) propan-2-ol]", "values": [
      {"measurement": "IC50", "value": "< 1000", "unit": "nM"}
    ]},
    {"smiles": "C[C@@H](Nc1c(Cl)cnc2ccc(-c3cnc(C(C)(C)O)nc3)cc12)c1cc(-c2cnccn2)ccc1F", "note": "[Example 341, (R)-2-(5-(3-chloro-4-((1-(2-fluoro-5-(pyrazin-2-yl)phenyl)ethyl)amino)quinolin-6-yl)pyrimidin-2-yl)propan-2-ol]", "values": [
      {"measurement": "IC50", "value": "< 1000", "unit": "nM"}
    ]},
    {"smiles": "Cc1nc2ccc(-c3cnc(N4CCN(CC(=O)O)CC4)nc3)cc2c(N[C@H](C)c2cc(-c3cn[nH]c3)ccc2F)c1Cl", "note": "[Example 342, (R)-2-(4-(5-(3-chloro-4-((1-(2-fluoro-5-(1H-pyrazol-4-yl)phenyl)ethyl)amino)-2-methylquinolin-6-yl)pyrimidin-2-yl)piperazin-1-yl)acetic acid]", "values": [
      {"measurement": "IC50", "value": "< 1000", "unit": "nM"}
    ]},
    {"smiles": "Cc1nc2ccc(-c3cnc(C(C)(C)O)nc3)cc2c(N[C@H](C)c2cc(-c3cnc(C(C)(C)O)nc3)ccc2F)c1Cl", "note": "[Example 343, (R)-2-(5-(3-chloro-4-((1-(2-fluoro-5-(2-(2-hydroxypropan-2-yl)pyrimidin-5-yl)phenyl)ethyl)amino)-2-methylquinolin-6-yl)pyrimidin-2-yl)propan-2-ol]", "values": [
      {"measurement": "IC50", "value": "< 1000", "unit": "nM"}
    ]},
    {"smiles": "Cc1nc2ccc(-c3cnc(C(C)(C)O)nc3)cc2c(N[C@H](C)c2cc(-c3cnn(C)c3)ccc2F)c1Cl", "note": "[Example 344, (R)-2-(5-(3-chloro-4-((1-(2-fluoro-5-(1-methyl-1H-pyrazol-4-yl)phenyl)ethyl)amino)-2-methylquinolin-6-yl)pyrimidin-2-yl)propan-2-ol]", "values": [
      {"measurement": "IC50", "value": "< 1000", "unit": "nM"}
    ]},
    {"smiles": "C[C@@H](Nc1c(Cl)cnc2ccc(-c3cnc(C(C)(C)O)nc3)cc12)c1cc(-c2ncccn2)ccc1F", "note": "[Example 345, (R)-2-(5-(3-chloro-4-((1-(2-fluoro-5-(pyrimidin-2-yl)phenyl)ethyl)amino)quinolin-6-yl)pyrimidin-2-yl)propan-2-ol]", "values": [
      {"measurement": "IC50", "value": "< 1000", "unit": "nM"}
    ]}
  ]
}
